Measurements reported in patent US11266650B2, “Pharmaceutical composition for preventing and treating nonalcoholic steatohepatitis, hepatic fibrosis, and liver cirrhosis, comprising adenosine derivatives” (FUTURE MEDICINE CO., LTD., priority 2016, dated 2022).

Key:
[1] = molecular target: T1, human A1 adenosine receptor (hA1) (Homo sapiens, UniProt P30542); assay: Binding affinity for human A1 adenosine receptor expressed in CHO cells ([3H]CCPA); details: 10 μM (table footnote); read-out: percentage inhibition of specific binding, hA1
T1 construct: expressed in transfected cells; host or cells: CHO cells (ATCC No. CCL-61)
T1 sequence (P30542 1-326): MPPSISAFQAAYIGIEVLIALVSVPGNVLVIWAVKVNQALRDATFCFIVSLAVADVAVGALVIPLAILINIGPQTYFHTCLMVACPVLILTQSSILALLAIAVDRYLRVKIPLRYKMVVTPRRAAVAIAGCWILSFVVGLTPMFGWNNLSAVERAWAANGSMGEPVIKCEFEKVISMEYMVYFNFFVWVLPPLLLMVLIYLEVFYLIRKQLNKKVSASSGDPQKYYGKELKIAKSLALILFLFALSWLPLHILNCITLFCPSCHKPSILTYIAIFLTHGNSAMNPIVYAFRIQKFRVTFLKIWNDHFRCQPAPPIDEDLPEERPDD
Description: (§1) CHO cells (ATCC No. CCL-61), in which A1 and A3 adenosine receptors were expressed, were cultured in F-12 media (Gibco, U.S.A.) supplemented with 10% fetal bovine serum (FBS) and penicillin/streptomycin (100 units/ml and 100 g/ml), at 37° C. in a 5% CO2 atmosphere. […] Incubation for 1 hr in a 37° C. incubator was followed by rapid filtration in a vacuum using a cell collector (TOMTEC, U.S.A.). Subsequently, the test tubes were washed three times with 3 ml of the buffer before radioactivity was measured using a γ-counter. […] Ki for binding affinity was determined by subtracting the non-specific binding value from the total binding value. On the basis of the specific binding values, the samples were analyzed for binding affinity to various adenosine receptors.

[2] = tested on: TPA-induced inflammation of the mouse ear; assay: Anti-inflammatory activity, TPA-treated mouse ear; format: in vivo, ICR mice; details: for percentage of inflammation inhibition: topical, mouse ear; for anti-inflammatory activity relative to Examples 2 to 4: 0.5% in acetone, on the basis of inhibition percentage
Description: The adenosine derivatives of the present invention were examined for anti-inflammatory activity in the following animal test. Seven-week-old male ICR mice were treated with TPA (12-O-tetradecanoylphorbol-13-acetate, 20 μl) in the right ear. […] Hydrocortisone was used at the same concentration as a control.
6 hrs after treatment with TPA, the mice were secondarily treated with the adenosine derivatives of the present invention. 24 hrs after TPA treatment, test animals were euthanized using a cervical dislocation method. Samples were obtained from the right ear using a 6 mm diameter punch. The activity was observed by measuring the ear sample using a microbalance. Percentages of inhibition were calculated using the following Equation 1. The compositions and amounts used in these experiments are summarized in Tables 2 to 5 and the anti-inflammatory activities thereof are shown in FIGS. 2 to 5.

[3] = molecular target: T2, human A2A adenosine receptor (hA2A) (Homo sapiens, UniProt P29274); assay: Binding affinity for A2A adenosine receptor expressed on HEK 293 cell ([3H]CGS-21680); details: 10 μM (table footnote); read-out: percentage inhibition of specific binding, hA2A
T2 construct: expressed in transfected cells; host or cells: HEK 293 cells
T2 sequence (P29274 whole entry): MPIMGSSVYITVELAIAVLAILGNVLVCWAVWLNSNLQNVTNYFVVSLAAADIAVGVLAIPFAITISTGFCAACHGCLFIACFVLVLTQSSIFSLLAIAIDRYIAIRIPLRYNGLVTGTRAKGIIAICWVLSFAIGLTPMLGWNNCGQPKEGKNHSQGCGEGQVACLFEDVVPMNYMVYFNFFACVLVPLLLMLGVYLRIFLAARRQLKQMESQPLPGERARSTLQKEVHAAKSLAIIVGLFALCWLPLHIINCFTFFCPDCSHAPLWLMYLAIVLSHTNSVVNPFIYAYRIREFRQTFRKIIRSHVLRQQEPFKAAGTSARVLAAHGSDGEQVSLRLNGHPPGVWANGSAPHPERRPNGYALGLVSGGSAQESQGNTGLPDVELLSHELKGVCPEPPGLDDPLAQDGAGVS
Description: Each of the compounds synthesized in the examples was measured for IC50 at least 6 different concentrations, and the measurements were analyzed using SigmaPlot software to determine Ki values.

[4] = tested on: NASH- or NAFLD-induced mice; assay: Efficacy test on NASH or NAFLD and liver fibrosis in NASH- or NAFLD-induced mice; format: in vivo; details: oral once a day, 6 to 10 weeks of age; vs negative control; HE staining
Description: As a comparison group, eight normal mice were given no treatment until 10 weeks of age. As a positive control group, eight NASH- or NAFLD-induced mice were orally administered with 10 mg/kg of telmisartan (i.e., a hypertension medication) once a day for six to 10 weeks of age. As a negative control group, eight NASH- or NAFLD-induced mice were orally administered with only 10 mL/kg of 0.5% methyl cellulose (i.e., a vehicle) once a day for 6 to 10 weeks of age.
Then, for the livers of the experimental animals at 10 weeks of age, the degree of steatosis, inflammation and ballooning were measured using HE staining, and the area of fibrosis was observed and measured using Sirius red staining.

[5] = molecular target: T3, human A3 adenosine receptor (hA3 AR) (Homo sapiens, UniProt P0DMS8); assay: Binding affinity for human A3 adenosine receptor expressed in CHO cells ([125I]AB-MECA); details: for Ki: ± SEM, [125I]AB-MECA, CHO cells
T3 construct: expressed in transfected cells; host or cells: CHO cells (ATCC No. CCL-61)
T3 sequence (P0DMS8 1-318): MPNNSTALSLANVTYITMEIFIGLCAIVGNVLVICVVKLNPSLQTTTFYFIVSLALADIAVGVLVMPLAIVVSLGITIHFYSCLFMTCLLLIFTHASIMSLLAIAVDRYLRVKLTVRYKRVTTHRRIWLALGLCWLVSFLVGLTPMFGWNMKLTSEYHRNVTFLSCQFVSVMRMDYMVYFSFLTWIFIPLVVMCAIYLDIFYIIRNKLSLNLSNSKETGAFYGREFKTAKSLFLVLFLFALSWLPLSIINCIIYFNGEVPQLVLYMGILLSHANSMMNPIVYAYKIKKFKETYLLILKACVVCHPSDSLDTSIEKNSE
Description: as §1

[6] = molecular target: T4, human A3 adenosine receptor (Homo sapiens, UniProt P0DMS8); assay: Antagonism of Cl-IB-MECA and cAMP inhibition in CHO cells expressing human A3 adenosine receptor; format: cell-based; details: CHO cells expressing hA3 AR, various concentrations
T4 construct: expressed in transfected cells; host or cells: CHO cells
T4 sequence (P0DMS8 1-318): T3 sequence (P0DMS8 1-318)

[7] = molecular target: T5, human A2B adenosine receptor (Homo sapiens, UniProt P29275); assay: Agonist or antagonist activity on human A2B adenosine receptor; format: biochemical
T5 sequence (P29275 1-332): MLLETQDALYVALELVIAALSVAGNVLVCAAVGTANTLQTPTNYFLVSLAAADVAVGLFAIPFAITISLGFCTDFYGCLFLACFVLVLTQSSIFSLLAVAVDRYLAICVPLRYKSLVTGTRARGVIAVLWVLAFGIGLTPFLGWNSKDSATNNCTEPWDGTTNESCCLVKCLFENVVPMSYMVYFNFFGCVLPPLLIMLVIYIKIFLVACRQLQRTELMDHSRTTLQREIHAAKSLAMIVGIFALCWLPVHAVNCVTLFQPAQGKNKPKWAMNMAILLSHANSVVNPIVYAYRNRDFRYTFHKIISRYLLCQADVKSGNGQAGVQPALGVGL

[8] = 0.5% in distilled water:acetone (1:4)

Compound | melting point | inhibition at 10 µM [1] [%] | inhibition [3] [%] | other results
O[C@@H]1[C@H](O)CS[C@H]1n1cnc2c(NCc3ccccc3Cl)nc(Cl)nc21 [Example 5, (2R,3R,4S)-2-(2-Chloro-6-(2-chlorobenzylamino)-9H-purin-9-yl)tetrahydrothiophen-3,4-diol] | 198.7 to 199.7 °C | – | – | inhibition [1]: 12.8%; percentage of inflammation inhibition [2, 8]: 17%
O[C@@H]1[C@H](O)CS[C@H]1n1cnc2c(NCc3cccc(I)c3)ncnc21 [Example 14, (2R,3R,4S)-2-(6-(3-Iodobenzylamino)-9H-purin-9-yl)tetrahydrothiophen-3,4-diol] | 198.8 to 199.8 °C | – | – | –
O[C@@H]1[C@H](O)CO[C@H]1n1cnc2c(NCc3cccc(Br)c3)nc(Cl)nc21 [Example 15, (2R,3R,4R)-2-(6-(3-bromobenzylamino)-2-chloro-9H-purin-9-yl)tetrahydrofuran-3,4-diol] | 181.5 to 181.7 °C | 39.8 | 22.8 | percentage of inflammation inhibition ([2]; 0.5% in DMSO:acetone (1:9)): 59%
CCCc1nc2c(C)cc(-c3nc4ccccc4n3C)cc2n1Cc1ccc(-c2ccccc2C(=O)O)cc1 [telmisartan] | – | – | – | steatosis score of the liver [4]: no significant decrease in steatosis was observed
O[C@@H]1[C@H](O)CS[C@H]1n1cnc2c(NCc3cccc(Br)c3)ncnc21 [Example 13, (2R,3R,4S)-2-(6-(3-bromobenzylamino)-9H-purin-9-yl)tetrahydrothiophen-3,4-diol] | 183 to 184 °C | – | – | –
CNc1nc(Cl)nc2c1ncn2[C@@H]1SC[C@H](O)[C@@H]1O [Example 10, 2-(2-Chloro-6-methylamino-purin-9-yl)(2R,3 S,4R)-tetrahydrothiophen-3,4-diol] | – | 55.4 ± 1.8 | 45 ± 1.4 | Ki [5]: 0.00369 ± 0.00025 µM
COc1ccccc1CNc1nc(Cl)nc2c1ncn2[C@@H]1SC[C@@H](O)[C@H]1O [Example 7, (2R,3R,4S)-2-(2-chloro-6-(2-methoxybenzylamino)-9H-purin-9-yl)tetrahydrothiophen-3,4-diol] | 188 °C | 9.4 | 17.5 | –
OC1CO[C@@H](n2cnc3c(NCc4cccc(I)c4)nc(Cl)nc32)C1O (stereo partly drawn) [Example 16, (2R,3R,4R)-2-(6-(3-iodobenzylamino)-2-chloro-9H-purin-9-yl)tetrahydrofuro-3,4-diol] | 195.5 to 195.8 °C | 37.7 | 28.6 | Ki [5]: 0.0429 ± 0.0089 µM; percentage of inflammation inhibition ([2]; 0.5% in DMSO:acetone (1:9)): 79%
O[C@@H]1[C@H](O)CS[C@H]1n1cnc2c(NCc3cccc(I)c3)nc(Cl)nc21 [Example 4, (2R,3R,4S)-2-(2-Chloro-6-(3-iodobenzylamino)-9H-purin-9-yl)tetrahydrothiophen-3,4-diol] | – | – | – | inhibition of the agonist effect of Cl-IB-MECA [6]: inhibited in a dose-dependent manner; agonist or antagonist on human A2B adenosine receptor [7]: not observed as an agonist or antagonist
O[C@@H]1[C@H](O)CS[C@H]1n1cnc2c(NCc3cccc(F)c3)nc(Cl)nc21 [Example 1, (2R,3R,4S)-2-(2-Chloro-6-(3-fluorobenzylamino)-9H-purin-9-yl)tetrahydrothiophen-3,4-diol] | 183.2 to 183.5 °C | 19.8 | 47.6 | anti-inflammatory activity relative to Examples 2 to 4 [2]: four or more times that of the compounds of Examples 2 to 4
O[C@@H]1[C@H](O)CS[C@H]1n1cnc2c(NCc3cccc4ccccc34)nc(Cl)nc21 [Example 8, (2R,3R,4S)-2-(2-Chloro-6-(naphthalen-1-ylmethylamino)-9H-purin-9-yl)tetrahydrothiophen-3,4-diol] | 226.3 °C (dec.) | 22 | -8.3 | percentage of inflammation inhibition [2, 8]: 53%
O=C(O)c1cccc(CNc2nc(Cl)nc3c2ncn3[C@@H]2SC[C@@H](O)[C@H]2O)c1 [Example 9, 3-((2-chloro-9-((2R,3R,4S)-3,4-dihydroxytetrahydrothiophen-2-yl)-9H-purine-6-ylamino)methyl)benzoic acid] | 254 to 256.9 °C | 13.1 | -0.18 | inhibition at 10 µM ([5]; 10 μM (table footnote), read-out: percentage inhibition of specific binding, hA3): 41.5%
COc1ccc(Cl)cc1CNc1nc(Cl)nc2c1ncn2[C@@H]1SC[C@@H](O)[C@H]1O [Example 6, (2R,3R,4S)-2-(2-Chloro-6-(5-chloro-2-methoxybenzylamino)-9H-purin-9-yl)tetrahydrothiophen-3,4-diol] | 188.8 to 189.8 °C | 23.8 | – | anti-inflammatory activity relative to Examples 2 to 4 [2]: four or more times that of the compounds of Examples 2 to 4
O[C@@H]1[C@H](O)CS[C@H]1n1cnc2c(NCc3cccc(Br)c3)nc(Cl)nc21 [Example 3, (2R,3R,4S)-2-(2-Chloro-6-(3-bromobenzylamino)-9H-purin-9-yl)tetrahydrothiophen-3,4-diol] | 184 to 185 °C | 34.2 | 18.4 | –
